The text below walks through data of ChEMBL document CHEMBL1146268, “Ponapensin, a cyclopenta[bc]benzopyran with potent NF-kappaB inhibitory activity from Aglaia ponapensis” (Bioorg Med Chem Lett, 2007).

Converted amounts (≈) assume the structure as drawn.

Assay [1] in a line: Inhibition of NF-kappaB by ELISA assay. The arrangement: species or system Homo sapiens. (ELISA stands for enzyme-linked immunosorbent assay.)
In another assay the test system is Lu1. The assay is described as follows: Cytotoxicity against Lu1 cells. It counts as functional. The following applies: Homo sapiens, read-out: ED50 (the source's name).
A further assay has as its system LNCaP. The assay is described as follows: Cytotoxicity against LNCaP cells. Format: functional. Particulars: Homo sapiens, read-out: ED50 (the source's name).
The next assay has as its system MCF7. Nature of the assay: Cytotoxicity against MCF7 cells. Format: functional. Particulars: Homo sapiens, read-out: ED50 (the source's name).

As usually defined, the IC50 is the concentration at which inhibition is half-maximal. A low value points to higher potency. With `CCC(C)C(=O)N[C@@H]1CCCN1C(=O)[C@@H]1[C@@H](c2ccccc2)[C@]2(c3ccc(OC)cc3)Oc3cc(OC)cc(OC)c3[C@@]1(O)[C@@H]2OC(C)=O` (some centres undefined) [4-EPIAGLAIN A], the IC50 in assay [1] is over 5000 nM.
`COc1ccc([C@]23Oc4cc(OC)cc(OC)c4[C@](O)([C@H](C(=O)N4CCC[C@@H]4OC)[C@H]2c2ccccc2)[C@@H]3O)cc1` (relative stereo) [PONAPENSIN] showed an IC50 in assay [1] of 60 nM.
Still for that read-out and setting: to `COc1ccc(C2OC(=O)c3c(OC)cc(OC)cc32)cc1` (centres undefined) belongs 1900 nM.
`COc1ccc([C@@]23Oc4cc(OC)cc(OC)c4[C@]2(O)[C@H](O)[C@H](C(=O)N(C)C)[C@H]3c2ccccc2)cc1` [ROCAGLAMIDE] showed an IC50 in assay [1] of 2000 nM.
`COC(=O)[C@H]1[C@@H](O)[C@@]2(O)c3c(OC)cc(OC)cc3O[C@@]2(c2ccc(OC)cc2)[C@@H]1c1ccccc1` [AGLAFOLIN] registered an IC50 in assay [1] of 2300 nM.
As for `C/C=C1/C(=O)C[C@H]2[C@@H]3CC=C4[C@@H](O)[C@@H](O)CC[C@]4(C)[C@H]3CC[C@]12C`, the EC50 in the assay with Lu1 stood at 4.6 µg/mL (≈ 13.9 µM); in the assay on LNCaP, 4.7 µg/mL (≈ 14.2 µM); with MCF7, 4.2 µg/mL (≈ 12.7 µM).
In turn, `CCC(C)C(=O)N[C@@H]1CCCN1C(=O)[C@H]1[C@H](c2ccccc2)[C@]2(c3ccc(OC)cc3)Oc3cc(OC)cc(OC)c3[C@@]1(O)[C@@H]2O` (some centres undefined) [AGLAIN B] came in with an IC50 in assay [1] of over 5000 nM.
